Data on 15 molecules can be found in ChEMBL document CHEMBL1158810, “Efficiency of foam fractionation for the enrichment of nonpolar compounds from aqueous extracts of plant materials” (J Nat Prod, 2005).

The series can be described thus: Octanol-water partition coefficient, log POW of the compound. It counts as physicochemical.

Usually logP stands for the decadic logarithm of the partition coefficient of the neutral form, usually between octanol and water. For the molecule `CC(C)=CCC1=C(O)C(C(=O)C(C)C)=C(O)[C@](O)(CC=C(C)C)C1=O`, for the setting “read-out: logP”, the logP worked out at 2.92. Same read-out and setting: next, `CC(C)=CCC1=C(O)C(C(=O)CC(C)C)=C(O)[C@](O)(CC=C(C)C)C1=O`: 3.01; `Oc1cc(O)c2c(c1)O[C@H](c1ccc(O)c(O)c1)[C@H](O)C2` [(-)-EPICATECHIN]: 0.67; `CC1=C(/C=C/C(C)=C/C=C/C(C)=C/C=C/C=C(C)/C=C/C=C(C)/C=C/C2=C(C)CCCC2(C)C)C(C)(C)CCC1` [BETA CAROTENE]: 4.19. The same measure, in the same setting: next, `O=C(/C=C/c1ccc(O)cc1)CC(=O)/C=C/c1ccc(O)cc1` [BISDEMETHOXYCURCUMIN]: 0.85. The same measure, in the same setting: next, `Oc1cc(O)c2c(c1)O[C@H](c1ccc(O)c(O)c1)[C@@H](O)C2` [CIANIDANOL]: 0.53. Molecule `COc1cc(/C=C/C(=O)CC(=O)/C=C/c2ccc(O)c(OC)c2)ccc1O` [CURCUMIN] came in with a logP of 1.15. As for `COc1cc(/C=C/C(O)=C/C(=O)/C=C/c2ccc(O)cc2)ccc1O` [DEMETHOXYCURCUMIN], the logP (read-out: logP) turned out to be 1.

On to `O=C(O[C@@H]1Cc2c(O)cc(O)cc2O[C@@H]1c1ccc(O)c(O)c1)c1cc(O)c(O)c(O)c1` [EPICATECHIN GALLATE], for which the logP (read-out: logP) was determined as 0.07. Same read-out and setting: next, `Oc1cc(O)c2c(c1)O[C@H](c1cc(O)c(O)c(O)c1)[C@H](O)C2` [EPIGALLOCATECHIN]: 0.13; `O=C(O[C@@H]1Cc2c(O)cc(O)cc2O[C@@H]1c1cc(O)c(O)c(O)c1)c1cc(O)c(O)c(O)c1` [EPIGALOCATECHIN GALLATE]: 0.09. On the same count and under the same terms, the same measure for `O=C(O[C@@H]1Cc2c(O)cc(O)cc2O[C@H]1c1cc(O)c(O)c(O)c1)c1cc(O)c(O)c(O)c1` [GALLOCATECHIN GALLATE]: 0.12; for `COc1ccc([C@@H]2CC(=O)c3c(O)cc(O[C@@H]4O[C@H](CO[C@@H]5O[C@@H](C)[C@H](O)[C@@H](O)[C@H]5O)[C@@H](O)[C@H](O)[C@H]4O)cc3O2)cc1O` [HESPERIDIN]: -0.21. The same measure, in the same setting: the same measure for `CC1=C[C@H](O)CC(C)(C)[C@H]1/C=C/C(C)=C/C=C/C(C)=C/C=C/C=C(C)/C=C/C=C(C)/C=C/C1=C(C)C[C@@H](O)CC1(C)C` [LUTEIN]: 3.89; for `C[C@@H]1O[C@@H](O[C@H]2[C@H](Oc3cc(O)c4c(c3)O[C@H](c3ccc(O)cc3)CC4=O)O[C@H](CO)[C@@H](O)[C@@H]2O)[C@H](O)[C@H](O)[C@H]1O` [NARINGIN]: -0.15.
